According to US10138212B2, “Aminoquinazoline compounds as A2A antagonist” (Merck Sharp & Dohme Corp., priority 2015, dated 2018):

How the values were obtained:
human A2a receptor = human A2a receptor (Homo sapiens (Human), UniProt P29274); assay: A2a competition binding assay using Scintillation Proximity technology
Method in brief: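 Membranes (0.25 or 1 μg) from HEK293 expressing the receptor were pretreated with adenosine deaminase and bound to WGA-coated yttrium silicate SPA beads. They were incubated 1 h at room temperature with compound at 3000–0.15 nM and 0.5 nM tritiated pyrazolotriazolopyrimidine ligand in Ca/Mg-free DPBS with 10 mM MgCl2. Ki was derived from […] by Cheng-Prusoff.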

human A1 receptor = human A1 receptor (Homo sapiens (Human), UniProt P30542); assay: A1 competition binding assay using Scintillation Proximity technology; selectivity = A1 binding Ki / A2a binding Ki; conditions: A1 binding Ki divided by A2a binding Ki
Method in brief: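 SPA competition using 5 ug membranes from CHO-K1 cells expressing human A1, pretreated with adenosine deaminase. Radioligand was 0.7 nM [3H]DPCPX (final), with compound at 3000–0.15 nM in DPBS + 10 mM MgCl2. Incubation was 1 h at room temperature. Non-specific binding was defined with 1 uM DPCPX, and Ki was derived as for A2a.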

[1] = 0.25 μg of membranes from HEK293 cells expressing the human A2a receptor
[2] = * assay run with 1 μg of membranes versus 0.25 μg, HEK293 cells expressing the human A2a receptor

Sequence of human A1 receptor (P30542 whole entry): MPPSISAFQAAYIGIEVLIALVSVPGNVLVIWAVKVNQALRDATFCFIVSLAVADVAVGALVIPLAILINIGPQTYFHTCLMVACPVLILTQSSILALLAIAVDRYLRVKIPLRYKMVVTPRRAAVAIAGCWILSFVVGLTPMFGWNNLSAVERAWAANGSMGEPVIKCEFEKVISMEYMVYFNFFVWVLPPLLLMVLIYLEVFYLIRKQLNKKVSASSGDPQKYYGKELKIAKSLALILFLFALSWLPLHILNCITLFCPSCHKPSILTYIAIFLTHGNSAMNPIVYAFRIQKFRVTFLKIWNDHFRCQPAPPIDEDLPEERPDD
Sequence of human A2a receptor (P29274 whole entry): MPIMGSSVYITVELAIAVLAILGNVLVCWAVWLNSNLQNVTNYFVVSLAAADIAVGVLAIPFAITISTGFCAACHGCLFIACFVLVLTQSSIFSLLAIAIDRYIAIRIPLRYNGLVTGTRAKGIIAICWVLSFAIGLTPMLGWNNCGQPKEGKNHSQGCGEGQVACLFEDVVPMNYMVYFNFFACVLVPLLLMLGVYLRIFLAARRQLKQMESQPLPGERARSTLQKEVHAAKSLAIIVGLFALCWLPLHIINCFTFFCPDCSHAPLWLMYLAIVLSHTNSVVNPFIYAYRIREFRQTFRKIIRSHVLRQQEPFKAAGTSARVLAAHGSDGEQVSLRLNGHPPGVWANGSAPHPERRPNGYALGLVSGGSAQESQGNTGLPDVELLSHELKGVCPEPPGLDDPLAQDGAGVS

SMILES	Ki (human A2a receptor; [1])	A2a selectivity (A2a A1 binding selectivity) (human A1 receptor)	Ki (human A2a receptor; [2])
[2H]C([2H])(NC(=O)c1nc(N)nc2c(F)cccc12)c1cccc(Oc2ccc(OCCOC)cc2)n1 [Example 59, 2-amino-N-[dideuterio-[6-[4-(2-methoxyethoxy)phenoxy]-2-pyridyl]methyl]-8-fluoro-quinazoline-4-carboxamide]		32	3.7 nM
[2H]C([2H])(NC(=O)c1nc(N)nc2c(OC)cccc12)c1cccc(N2CCN(c3ccc(OCCOC)cc3)CC2)n1 [Example 60, 2-amino-N-[dideuterio-[6-[4-[4-(2-methoxyethoxy)phenyl]piperazin-1-yl]-2-pyridyl]methyl]-8-methoxy-quinazoline-4-carboxamide]		67	4.3 nM
Nc1nc(C(=O)NCc2cccc(-c3ccccn3)n2)c2cccc(F)c2n1 [Example 63, 2-amino-8-fluoro-N-[[6-(2-pyridyl)-2-pyridyl]methyl]quinazoline-4-carboxamide]	0.8 nM	59	
CC(C)c1cccc(-c2cccc(CNC(=O)c3nc(N)nc4c(F)cccc34)n2)c1 [Example 65, 2-amino-8-fluoro-N-[[6-(3-isopropylphenyl)-2-pyridyl]methyl]quinazoline-4-carboxamide]	1 nM	50	
CC(C)Oc1cccc(-c2cccc(CNC(=O)c3nc(N)nc4c(F)cccc34)n2)c1 [Example 66, 2-amino-8-fluoro-N-[[6-(3-isopropoxyphenyl)-2-pyridyl]methyl]quinazoline-4-carboxamide]		3	3.8 nM
Nc1nc(C(=O)NCc2ncccc2-c2ncccn2)c2cccc(F)c2n1 [Example 67, 2-amino-8-fluoro-N-[(3-pyrimidin-2-yl-2-pyridyl)methyl]quinazoline-4-carboxamide]	4 nM	297	
Cc1ccc(-c2cccnc2CNC(=O)c2nc(N)nc3c(F)cccc23)nc1 [Example 68, 2-amino-8-fluoro-N-[[3-(5-methyl-2-pyridyl)-2-pyridyl]methyl]quinazoline-4-carboxamide]		44	9.1 nM
Cc1csc(-c2cccc(CNC(=O)c3nc(N)nc4c(F)cccc34)n2)n1 [Example 69, 2-amino-8-fluoro-N-[[6-(4-methylthiazol-2-yl)-2-pyridyl]methyl]quinazoline-4-carboxamide]	4.2 nM	63	
Nc1nc(C(=O)NCc2cccc(-c3cnco3)n2)c2cccc(F)c2n1 [Example 70, 2-amino-8-fluoro-N-[(6-oxazol-5-yl-2-pyridyl)methyl]quinazoline-4-carboxamide]	4.5 nM	19	
Cc1ccc(CCNC(=O)c2nc(N)nc3c(F)cccc23)nc1 [Example 73, 2-amino-8-fluoro-N-[2-(5-methyl-2-pyridyl)ethyl)quinazoline-4-carboxamide]	225 nM	33	
CC1(O)CCN(c2cccc(CNC(=O)c3nc(N)nc4c(F)cccc34)n2)CC1 [Example 79, 2-amino-8-fluoro-N-[[6-(4-hydroxy-4-methyl-1-piperidyl)-2-pyridyl]methyl]quinazoline-4-carboxamide]	5.2 nM	14	
Nc1nc(C(=O)NCc2cc(C3CC3)on2)c2cccc(F)c2n1 [Example 83, 2-amino-N-[(5-cyclopropylisoxazol-3-yl)methyl]-8-fluoro-quinazoline-4-carboxamide]	14 nM	3	
Nc1nc(C(=O)NCC23CC4CC(CC(C4)C2)C3)c2cccc(F)c2n1 [Example 85, N-(1-adamantylmethyl)-2-amino-8-fluoro-quinazoline-4-carboxamide]	6.4 nM	4	
Nc1nc(C(=O)NCC2CCN(c3ncc(F)cn3)CC2)c2cccc(F)c2n1 [Example 86, 2-amino-8-fluoro-N-[[1-(5-fluoropyrimidin-2-yl)-4-piperidyl]methyl]quinazoline-4-carboxamide]	8 nM	141	
Nc1nc(C(=O)NCC2CC3CCC2C3)c2cccc(F)c2n1 (centres unmarked) [Example 87, 2-amino-8-fluoro-N-(norbornan-2-ylmethyl)quinazoline-4-carboxamide]		3	32 nM
C[C@@H](NC(=O)c1nc(N)nc2c(F)cccc12)c1cccc2cccnc12 [Example 88, 2-amino-8-fluoro-N-[(1R)-1-(8-quinolyl)ethyl]quinazoline-4-carboxamide]	6.7 nM	8	
Nc1nc(C(=O)NCc2nccc3ccccc23)c2cccc(F)c2n1 [Example 89, 2-amino-8-fluoro-N-(isoquinolin-1-ylmethyl)quinazoline-4-carboxamide]		13	6.6 nM

Other lines, results leading:

Ki (human A2a receptor; [1])	A2a selectivity (A2a A1 binding selectivity) (human A1 receptor)	Ki (human A2a receptor; [2])	SMILES
9.6 nM	67		Nc1nc(C(=O)NCc2cccc(CO)n2)c2cccc(F)c2n1 [Example 57, 2-amino-8-fluoro-N-[[6-(hydroxymethyl)-2-pyridyl]methyl]quinazoline-4-carboxamide]
	16	5 nM	[2H]C([2H])(NC(=O)c1nc(N)nc2c(OC)cccc12)c1cccc(Oc2cncc(OC)c2)n1 [Example 58, 2-amino-N-[dideuterio-[6-[(5-methoxy-3-pyridyl)oxy]-2-pyridyl]methyl]-8-methoxy-quinazoline-4-carboxamide]
0.9 nM	100		COc1cccc2c(C(=O)NCc3cccn(C)c3=O)nc(N)nc12 [Example 61, 2-amino-8-methoxy-N-[(1-methyl-2-oxo-3-pyridyl)methyl]quinazoline-4-carboxamide]
0.5 nM	297		Nc1nc(C(=O)NCc2ccccc2-n2cccn2)c2cccc(F)c2n1 [Example 62, 2-amino-8-fluoro-N-[(2-pyrazol-1-ylphenyl)methyl]quinazoline-4-carboxamide]
0.9 nM	235		Nc1nc(C(=O)NCc2ccccc2-c2ncccn2)c2cccc(F)c2n1 [Example 64, 2-amino-8-fluoro-N-[(2-pyrimidin-2-ylphenyl)methyl]quinazoline-4-carboxamide]
3.6 nM	60		Nc1nc(C(=O)NCc2cccc(C(F)F)n2)c2cccc(F)c2n1 [Example 71, 2-amino-N-[[6-(difluoromethyl)-2-pyridyl]methyl]-8-fluoro-quinazoline-4-carboxamide]
6.1 nM	30		Cc1ccc(CNC(=O)c2nc(N)nc3c(F)cccc23)nc1 [Example 72, 2-amino-8-fluoro-N-[(5-methyl-2-pyridyl)methyl]quinazoline-4-carboxamide]
	18	2.5 nM	COC(=O)c1ccccc1CNC(=O)c1nc(N)nc2c(F)cccc12 [Example 74, methyl 2-[[(2-amino-8-fluoro-quinazoline-4-carbonyl)amino]methyl]benzoate]
	14	23 nM	COC(=O)c1cccc(CNC(=O)c2nc(N)nc3c(F)cccc23)n1 [Example 75, methyl 6-[[(2-amino-8-fluoro-quinazoline-4-carbonyl)amino]methyl]pyridine-2-carboxylate]
0.5 nM	115		Cc1ccc(F)c(CNC(=O)c2nc(N)nc3c(F)cccc23)n1 [Example 76, 2-amino-8-fluoro-N-[(3-fluoro-6-methyl-2-pyridyl)methyl]quinazoline-4-carboxamide]
0.8 nM	62		COc1ccc(C)c(CNC(=O)c2nc(N)nc3c(F)cccc23)n1 [Example 77, 2-amino-8-fluoro-N-[(6-methoxy-3-methyl-2-pyridyl)methyl]quinazoline-4-carboxamide]
1 nM	75		CC(C)Oc1cccc(CNC(=O)c2nc(N)nc3c(F)cccc23)n1 [Example 78, 2-amino-8-fluoro-N-[(6-isoppropoxy-2-pyridyl)methyl]quinazoline-4-carboxamide]
	21	6.2 nM	Nc1nc(C(=O)NCc2cccc3cncn23)c2cccc(F)c2n1 [Example 80, 2-amino-8-fluoro-N-(imidazo[1,5-a]pyridin-5-ylmethyl)quinazoline-4-carboxamide]
6.9 nM	12		Cc1cccn2cc(CNC(=O)c3nc(N)nc4c(F)cccc34)nc12 [Example 81, 2-amino-8-fluoro-N-[(8-methylimidazo[1,2-a]pyridin-2-yl)methyl]quinazoline-4-carboxamide]
0.6 nM	56		CC(C)c1nc(CNC(=O)c2nc(N)nc3c(F)cccc23)cs1 [Example 82, 2-amino-8-fluoro-N-[(2-isopropylthiazol-4-yl)methyl]quinazoline-4-carboxamide]
5.3 nM	25		Nc1nc(C(=O)NCc2cccc3c2OCCN3)c2cccc(F)c2n1 [Example 84, 2-amino-N-(3,4-dihydro-2H-1,4-benzoxazin-8-ylmethyl)-8-fluoro-quinazoline-4-carboxamide]
3 nM	70		Nc1nc(C(=O)NCc2cccc3cccnc23)c2cccc(Cl)c2n1 [Example 91, 2-amino-8-chloro-N-(8-quinolylmethyl)quinazoline-4-carboxamide]
